Laboratory results published in ChEMBL document CHEMBL1201862, “PubChem BioAssay data set” (2004).
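Cells were grown in 96-well plates and exposed to each compound for 48 hours at five concentrations; endpoints were interpolated linearly between bracketing concentrations, or set to the highest concentration if not reached. The concentration for 50% growth inhibition is given as GI50.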 Calls of active or inactive are those of the source. Rule as the data show it: active = GI50 up to about 1.1 µM and inactive = higher.

Legend:
Assay in all cases: inhibition of tumour cell growth, NCI panel, 48 h
RPMI-8226 = test system: RPMI-8226
MDA-MB-435 = test system: MDA-MB-435
OVCAR-3 = test system: OVCAR-3
SF-539 = test system: SF-539
SK-OV-3 = test system: SK-OV-3
KM12 = test system: KM12
SK-MEL-5 = test system: SK-MEL-5
HOP-92 = test system: HOP-92
CAKI-1 = test system: CAKI-1
SNB-19 = test system: SNB-19
OVCAR-4 = test system: OVCAR-4
PC-3 = test system: PC-3
TK-10 = test system: TK-10
CCRF-CEM = test system: CCRF-CEM
A549 = test system: A549
SF-295 = test system: SF-295
OVCAR-5 = test system: OVCAR-5
SR = test system: SR
IGROV-1 = test system: IGROV-1
Hs-578T = test system: Hs-578T

Measured: GI50

O=c1[nH]c(=O)c2ncn(-c3ccc([N+](=O)[O-])cn3)c2[nH]1
inactive: RPMI-8226 > 100 µM | MDA-MB-435 > 100 µM | OVCAR-3 > 100 µM | SF-539 > 100 µM | SK-OV-3 > 100 µM | KM12 > 100 µM | SK-MEL-5 > 100 µM | HOP-92 > 100 µM | CAKI-1 > 100 µM | SNB-19 > 100 µM | OVCAR-4 > 100 µM | PC-3 > 100 µM | TK-10 > 100 µM | CCRF-CEM > 100 µM | A549 > 100 µM | SF-295 > 100 µM | OVCAR-5 > 100 µM

CC(O)c1ccc(C(O)/C(=N\NC(=O)c2ccncc2)c2nc3ccc([N+](=O)[O-])cc3nc2O)cc1 (stereo not given)
inactive: RPMI-8226 > 100 µM | OVCAR-3 > 100 µM | SF-539 37 µM | SK-OV-3 > 100 µM | KM12 49 µM | SK-MEL-5 > 100 µM | HOP-92 > 100 µM | CAKI-1 52.8 µM | SNB-19 > 100 µM | OVCAR-4 > 100 µM | CCRF-CEM > 100 µM | SR 75 µM | A549 > 100 µM | SF-295 > 100 µM | OVCAR-5 > 100 µM | IGROV-1 > 100 µM

CCOc1ccccc1NC(=O)C(=O)CC(=O)c1sc(Nc2nnc(-c3ccc(Cl)c(Cl)c3)o2)nc1C
inactive: RPMI-8226 64.3 µM | OVCAR-3 77.8 µM | SF-539 > 100 µM | SK-OV-3 > 100 µM | KM12 > 100 µM | SK-MEL-5 > 100 µM | HOP-92 > 100 µM | CAKI-1 > 100 µM | SNB-19 > 100 µM | OVCAR-4 > 100 µM | TK-10 > 100 µM | CCRF-CEM 40.8 µM | SR > 100 µM | A549 > 100 µM | SF-295 > 100 µM | OVCAR-5 > 100 µM | IGROV-1 > 100 µM

CC(C)CC(NC(=O)C(CI)Cc1ccccc1)C(=O)Nc1ccccc1 (stereo not given)
inactive: RPMI-8226 > 100 µM | MDA-MB-435 > 100 µM | OVCAR-3 > 100 µM | SF-539 > 100 µM | SK-OV-3 > 100 µM | KM12 > 100 µM | SK-MEL-5 > 100 µM | HOP-92 > 100 µM | CAKI-1 > 100 µM | SNB-19 > 100 µM | OVCAR-4 50 µM | PC-3 > 100 µM | TK-10 > 100 µM | CCRF-CEM > 100 µM | SR 68.9 µM | A549 > 100 µM | SF-295 > 100 µM | OVCAR-5 > 100 µM | IGROV-1 > 100 µM

COC1OC(Cc2nnc(C)o2)C(OCc2ccccc2)C(OCc2ccccc2)C1OCc1ccccc1 (stereo not given)
inactive: Hs-578T 43 µM | RPMI-8226 32.4 µM | MDA-MB-435 19.7 µM | OVCAR-3 18.3 µM | SF-539 38.3 µM | SK-OV-3 77.4 µM | KM12 15.8 µM | SK-MEL-5 16.3 µM | HOP-92 35.3 µM | CAKI-1 35.6 µM | SNB-19 57.8 µM | OVCAR-4 41.4 µM | CCRF-CEM 21.7 µM | SR 13.2 µM | A549 27.2 µM | SF-295 18.9 µM | OVCAR-5 41.2 µM | IGROV-1 13.9 µM

COc1ccc2c(c1)CC[C@@H]1[C@@H]2CC[C@]2(C)C(=O)/C(=C/c3ccncc3)C[C@@H]12
inactive: RPMI-8226 93.8 µM | MDA-MB-435 30.4 µM | OVCAR-3 17.8 µM | SF-539 25.5 µM | SK-OV-3 32.9 µM | KM12 27.2 µM | SK-MEL-5 20.2 µM | HOP-92 27.9 µM | CAKI-1 46.5 µM | SNB-19 44.3 µM | OVCAR-4 48.2 µM | PC-3 29.3 µM | TK-10 30.6 µM | CCRF-CEM > 100 µM | SR 47.2 µM | A549 30.8 µM | SF-295 22.4 µM | OVCAR-5 48.9 µM | IGROV-1 56.1 µM

O=C1CSC(c2c[nH]c3ccccc23)N1c1cccc(Cl)c1 (stereo not given)
inactive: Hs-578T 38.4 µM | RPMI-8226 25.7 µM | MDA-MB-435 33.6 µM | OVCAR-3 27.9 µM | SF-539 61.1 µM | SK-OV-3 > 100 µM | KM12 50.1 µM | SK-MEL-5 40 µM | HOP-92 60.4 µM | SNB-19 68.2 µM | OVCAR-4 38 µM | TK-10 89.3 µM | CCRF-CEM 31.9 µM | A549 56.1 µM | SF-295 44.1 µM | OVCAR-5 73.8 µM | IGROV-1 27.9 µM

CC(C)(C)c1cc2c(O)c(c1)COCc1cc(C(C)(C)C)cc(c1O)COCc1cc(C(C)(C)C)cc(c1O)COC2
inactive: RPMI-8226 50.4 µM | MDA-MB-435 > 100 µM | OVCAR-3 > 100 µM | SK-OV-3 > 100 µM | KM12 64.6 µM | SK-MEL-5 99.3 µM | HOP-92 > 100 µM | SNB-19 6.04 µM | OVCAR-4 > 100 µM | PC-3 > 100 µM | TK-10 > 100 µM | CCRF-CEM 59 µM | SR > 100 µM | A549 > 100 µM | SF-295 > 100 µM | OVCAR-5 > 100 µM | IGROV-1 > 100 µM
